Experimental data: patent publication US11149023B2, “Substituted triazole derivatives and uses thereof” (Bayer Pharma Aktiengesellschaft, priority 2017, dated 2021)

What was measured:
human V1a receptor = human V1a receptor (Homo sapiens (Human), UniProt P37288); assay: Cellular in vitro assay for determining vasopressin receptor activity (V1a, aequorin luminescence); format: cell-based; settings: for IC50: CHO cell line transfected with human V1a receptor, [Arg8]-vasopressin at EC50 concentration, read-out: IC50 hV1a; for ratio IC50 hV2/hV1a: selectivity, IC50 hV2 divided by IC50 hV1a
human V1a receptor, sequence (P37288 whole entry): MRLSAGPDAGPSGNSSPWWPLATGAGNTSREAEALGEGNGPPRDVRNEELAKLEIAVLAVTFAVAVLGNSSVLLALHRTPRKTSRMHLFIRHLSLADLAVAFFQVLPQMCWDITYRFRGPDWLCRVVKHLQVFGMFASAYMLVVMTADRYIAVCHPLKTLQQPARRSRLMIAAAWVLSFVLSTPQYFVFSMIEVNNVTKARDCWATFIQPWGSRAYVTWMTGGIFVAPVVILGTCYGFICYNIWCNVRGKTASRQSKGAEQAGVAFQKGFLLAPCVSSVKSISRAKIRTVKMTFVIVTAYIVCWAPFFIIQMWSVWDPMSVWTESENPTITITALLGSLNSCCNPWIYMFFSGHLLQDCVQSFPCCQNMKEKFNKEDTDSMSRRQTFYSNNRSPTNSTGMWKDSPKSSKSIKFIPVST
Procedure: (§1) B-1. Cellular In Vitro Assay for Determining Vasopressin Receptor Activity
(§2) The identification of agonists and antagonists of the V1a and V2 vasopressin receptors from humans, rats and dogs as well as the quantification of the activity of the compounds of the invention is carried out using recombinant cell lines. These cell lines originally derive from a hamster's ovary epithelial cell (Chinese Hamster Ovary, CHO K1, ATCC: American Type Culture Collection, Manassas, Va. 20108, USA). The test cell lines constitutively express the human, rat or dog V1a or V2 receptors. In case of the Gαq-coupled V1a receptors, cells are also stably transfected with a modified form of the calcium-sensitive photoproteins aequorin (human and rat V1a) or obe-lin (dog V1a), which, after reconstitution with the cofactor coelenterazine, emit light when there are increases in free calcium concentrations [Rizzuto R, Simpson A W, Brini M, Pozzan T, Nature 358, 325-327 (1992); Illarionov B A, Bondar V S, Illarionova V A, Vysotski E S, Gene 153 (2), 273-274 (1995)]. The resulting vasopressin receptor cells react to stimulation of the recombinantly expressed Via receptors by intracellular release of calcium ions, which can be quantified by the resulting photoprotein luminescence. The Gs-coupled V2 receptors are stably transfected into cell lines expressing the gene for firefly luciferase under control of a CRE-responsible promoter. Activation of V2 receptors induces the activation of the CRE-responsive promoter via cAMP increase, thereby inducing the expression of firefly luciferase. The light emitted by photoproteins of V1a cell lines as well as the light emitted by firefly luciferase of V2 cell lines corresponds to the activation or inhibition of the respective vasopressin receptor. The bioluminescence of the cell lines is detected using a suitable luminometer [Milligan G, Marshall F, Rees S, Trends in Pharmacological Sciences 17, 235-237 (1996)].
Vasopressin V1a Receptor Cell Lines:
On the day before the assay, the cells are plated out in culture medium (DMEM/F12, 2% FCS, 2 mM glutamine, 10 mM HEPES, 5 μg/ml coelenterazine) in 384-well microtiter plates and kept in a cell incubator (96% humidity, 5% v/v CO2, 37° C.). On the day of the assay, test compounds in various concentrations are placed for 10 minutes in the wells of the microtiter plate before the agonist [Arg^8]-vasopressin at EC50 concentration is added. The resulting light signal is measured immediately in a luminometer.
(§3) Table 1A below lists individual IC50 values for the compounds of the invention (including racemic mixtures as well as separated enantiomers) that were obtained from cell lines transfected with the human Via or V2 receptor: […]

human V2 receptor = human V2 receptor (Homo sapiens (Human), UniProt P30518); assay: Cellular in vitro assay for determining vasopressin receptor activity (V2, CRE-luciferase); format: cell-based; settings: CHO cell line transfected with human V2 receptor; [Arg8]-vasopressin at EC50 concentration; read-out: IC50 hV2
human V2 receptor, sequence (P30518 whole entry): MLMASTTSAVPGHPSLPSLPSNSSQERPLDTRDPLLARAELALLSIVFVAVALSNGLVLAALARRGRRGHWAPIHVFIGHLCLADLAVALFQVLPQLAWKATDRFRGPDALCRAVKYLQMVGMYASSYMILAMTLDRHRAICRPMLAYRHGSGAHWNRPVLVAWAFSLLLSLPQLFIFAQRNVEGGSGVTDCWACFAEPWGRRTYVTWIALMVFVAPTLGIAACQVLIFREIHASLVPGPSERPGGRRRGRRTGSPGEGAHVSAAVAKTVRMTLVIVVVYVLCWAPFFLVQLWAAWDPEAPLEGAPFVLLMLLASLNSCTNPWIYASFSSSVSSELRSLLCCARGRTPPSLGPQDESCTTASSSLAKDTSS
Procedure: as §1, §2
Vasopressin V2 Receptor Cell Lines:
On the day before the assay, the cells are plated out in culture medium (DMEM/F12, 2% FCS, 2 mM glutamine, 10 mM HEPES) in 384-well microtiter plates and kept in a cell incubator (96% humidity, 5% v/v CO2, 37° C.). On the day of the assay, test compounds in various concentrations and the agonist [Arg^8]-vasopressin at EC50 concentration are added together to the wells, and plates are incubated for 3 hours in a cell incubator. Upon addition of the cell lysis reagent Triton™ and the substrate luciferin, luminescence of firefly luciferase is measured in a luminometer.
as §3

Row | IC50 (human V1a receptor) | ratio IC50 hV2/hV1a (human V1a receptor) | IC50 (human V2 receptor) | Structure (SMILES)
1 | 0.0012 µM | 37.9 | 0.0455 µM | O=C(CC(F)(F)F)NC(Cn1c(-c2ccc(Cl)cc2)nn(Cc2ncn(-c3ncccc3Cl)n2)c1=O)C(F)(F)F (racemic) [Example 11, N-{3-[3-(4-Chlorophenyl)-1-{[1-(3-chloropyridin-2-yl)-1H-1,2,4-triazol-3-yl]methyl}-5-oxo-1,5-dihydro-4H-1,2,4-triazol-4-yl]-1,1,1-trifluoropropan-2-yl}-3,3,3-trifluoropropanamide]
2 |  | 26.1 |  | O=C(CCC(F)(F)F)NC(Cn1c(-c2ccc(Cl)cc2)nn(Cc2ncn(-c3ncccc3Cl)n2)c1=O)C(F)(F)F (racemic) [Example 33, N-{3-[3-(4-Chlorophenyl)-1-{[1-(3-chloropyridin-2-yl)-1H-1,2,4-triazol-3-yl]methyl}-5-oxo-1,5-dihydro-4H-1,2,4-triazol-4-yl]-1,1,1-trifluoropropan-2-yl}-4,4,4-trifluorobutanamide]
3 |  | 40.9 |  | O=C(CCC(F)(F)F)NC(Cn1c(-c2ccc(Cl)cc2)nn(Cc2ncn(-c3ncccc3Cl)n2)c1=O)C(F)(F)F (racemic) [Example 34, N-{3-[3-(4-Chlorophenyl)-1-{[1-(3-chloropyridin-2-yl)-1H-1,2,4-triazol-3-yl]methyl}-5-oxo-1,5-dihydro-4H-1,2,4-triazol-4-yl]-1,1,1-trifluoropropan-2-yl}-4,4,4-trifluorobutanamide]
4 |  | 110.9 |  | O=C(NC(Cn1c(-c2ccc(Cl)cc2)nn(Cc2ncn(-c3ncccc3Cl)n2)c1=O)C(F)(F)F)C1CS(=O)(=O)C1 (racemic) [Example 39, N-{3-[3-(4-Chlorophenyl)-1-{[1-(3-chloropyridin-2-yl)-1H-1,2,4-triazol-3-yl]methyl}-5-oxo-1,5-dihydro-4H-1,2,4-triazol-4-yl]-1,1,1-trifluoropropan-2-yl}thietane-3-carboxamide 1,1-dioxide]
5 |  | 26.7 |  | O=C(NC(Cn1c(-c2ccc(Cl)cc2)nn(Cc2ncn(-c3ncccc3Cl)n2)c1=O)C(F)(F)F)C1CS(=O)(=O)C1 (racemic) [Example 40, N-{3-[3-(4-Chlorophenyl)-1-{[1-(3-chloropyridin-2-yl)-1H-1,2,4-triazol-3-yl]methyl}-5-oxo-1,5-dihydro-4H-1,2,4-triazol-4-yl]-1,1,1-trifluoropropan-2-yl}thietane-3-carboxamide 1,1-dioxide]
6 |  | 9.8 |  | CS(=O)(=O)CC(=O)NC(Cn1c(-c2ccc(Cl)cc2)nn(Cc2ncn(-c3ncccc3Cl)n2)c1=O)C(F)(F)F (racemic) [Example 45, N-{3-[3-(4-Chlorophenyl)-1-{[1-(3-chloropyridin-2-yl)-1H-1,2,4-triazol-3-yl]methyl}-5-oxo-1,5-dihydro-4H-1,2,4-triazol-4-yl]-1,1,1-trifluoropropan-2-yl}-2-(methylsulfonyl)acetamide]
7 |  | 56.5 |  | O=C(NC(Cn1c(-c2ccc(Cl)cc2)nn(Cc2ncn(-c3ncccc3Cl)n2)c1=O)C(F)(F)F)[C@@H]1C[C@H](F)CN1 (stereo in doubt) [Example 48, N-{3-[3-(4-Chlorophenyl)-1-{[1-(3-chloropyridin-2-yl)-1H-1,2,4-triazol-3-yl]methyl}-5-oxo-1,5-dihydro-4H-1,2,4-triazol-4-yl]-1,1,1-trifluoropropan-2-yl}-4-fluoro-prolinamide]
8 |  | 9.0 |  | O=C(NC(Cn1c(-c2ccc(Cl)cc2)nn(Cc2ncn(-c3ncccc3Cl)n2)c1=O)C(F)(F)F)C1(C(F)(F)F)CC1 (stereo not drawn) [Example 42, N-{3-[3-(4-Chlorophenyl)-1-{[1-(3-chloropyridin-2-yl)-1H-1,2,4-triazol-3-yl]methyl}-5-oxo-1,5-dihydro-4H-1,2,4-triazol-4-yl]-1,1,1-trifluoropropan-2-yl}-1-(trifluoromethyl)cyclopropane-carboxamide]

The remaining lines, values behind:

Row | Structure (SMILES) | IC50 (human V1a receptor) | ratio IC50 hV2/hV1a (human V1a receptor) | IC50 (human V2 receptor)
9 | O=C(NC(Cn1c(-c2ccc(Cl)cc2)nn(Cc2ncn(-c3ncccc3Cl)n2)c1=O)C(F)(F)F)C1COC1 (racemic) [Example 1, N-{3-[3-(4-Chlorophenyl)-1-{[1-(3-chloropyridin-2-yl)-1H-1,2,4-triazol-3-yl]methyl}-5-oxo-1,5-dihydro-4H-1,2,4-triazol-4-yl]-1,1,1-trifluoropropan-2-yl}oxetane-3-carboxamide] | 0.0049 µM | 50.0 | 0.245 µM
10 | CC(=O)NC(Cn1c(-c2ccc(Cl)cc2)nn(Cc2ncn(-c3ncccc3Cl)n2)c1=O)C(F)(F)F (racemic) [Example 4, N-{3-[3-(4-Chlorophenyl)-1-{[1-(3-chloropyridin-2-yl)-1H-1,2,4-triazol-3-yl]methyl}-5-oxo-1,5-dihydro-4H-1,2,4-triazol-4-yl]-1,1,1-trifluoropropan-2-yl}acetamide] | 0.0555 µM | 33.3 | 1.85 µM
11 | N#CCC(=O)NC(Cn1c(-c2ccc(Cl)cc2)nn(Cc2ncn(-c3ncccc3Cl)n2)c1=O)C(F)(F)F (racemic) [Example 5, N-{3-[3-(4-Chlorophenyl)-1-{[1-(3-chloropyridin-2-yl)-1H-1,2,4-triazol-3-yl]methyl}-5-oxo-1,5-dihydro-4H-1,2,4-triazol-4-yl]-1,1,1-trifluoropropan-2-yl}-2-cyanoacetamide] | 0.0106 µM | 56.4 | 0.595 µM
12 | COCC(=O)NC(Cn1c(-c2ccc(Cl)cc2)nn(Cc2ncn(-c3ncccc3Cl)n2)c1=O)C(F)(F)F (racemic) [Example 6, N-{3-[3-(4-Chlorophenyl)-1-{[1-(3-chloropyridin-2-yl)-1H-1,2,4-triazol-3-yl]methyl}-5-oxo-1,5-dihydro-4H-1,2,4-triazol-4-yl]-1,1,1-trifluoropropan-2-yl}-2-methoxyacetamide] | 0.00565 µM | 111.5 | 0.63 µM
13 | O=C(CF)NC(Cn1c(-c2ccc(Cl)cc2)nn(Cc2ncn(-c3ncccc3Cl)n2)c1=O)C(F)(F)F (racemic) [Example 8] | 0.0425 µM | 51.8 | 2.2 µM
14 | CC(F)(F)C(=O)NC(Cn1c(-c2ccc(Cl)cc2)nn(Cc2ncn(-c3ncccc3Cl)n2)c1=O)C(F)(F)F (racemic) [Example 9] | 0.01 µM | 66.0 | 0.66 µM
15 | CCC(=O)NC(Cn1c(-c2ccc(Cl)cc2)nn(Cc2ncn(-c3ncccc3Cl)n2)c1=O)C(F)(F)F (racemic) [Example 13, N-{3-[3-(4-Chlorophenyl)-1-{[1-(3-chloropyridin-2-yl)-1H-1,2,4-triazol-3-yl]methyl}-5-oxo-1,5-dihydro-4H-1,2,4-triazol-4-yl]-1,1,1-trifluoropropan-2-yl}propanamide] | 0.00695 µM | 37.4 | 0.26 µM
16 | CS(=O)(=O)CC(=O)NC(Cn1c(-c2ccc(Cl)cc2)nn(Cc2ncn(-c3ncccc3Cl)n2)c1=O)C(F)(F)F (racemic) [Example 46, N-{3-[3-(4-Chlorophenyl)-1-{[1-(3-chloropyridin-2-yl)-1H-1,2,4-triazol-3-yl]methyl}-5-oxo-1,5-dihydro-4H-1,2,4-triazol-4-yl]-1,1,1-trifluoropropan-2-yl}-2-(methylsulfonyl)acetamide] |  | 42.8 | 
17 | O=C(NC(Cn1c(-c2ccc(Cl)cc2)nn(Cc2ncn(-c3ncccc3Cl)n2)c1=O)C(F)(F)F)[C@@H]1C[C@@H](F)CN1 (stereo in doubt) [Example 49, N-{3-[3-(4-Chlorophenyl)-1-{[1-(3-chloropyridin-2-yl)-1H-1,2,4-triazol-3-yl]methyl}-5-oxo-1,5-dihydro-4H-1,2,4-triazol-4-yl]-1,1,1-trifluoropropan-2-yl}-4-fluoro-prolinamide] |  | 112.7 | 
